# Measurements published in patent publication US20040176285A1, “Tip39 polypeptides” (priority 2001, published 2004).
# “Also recorded” adds a separate entry of the source. Where a SMILES comes first, the peptide text is derived from it. Where no end group is shown, it is not given here.
# Columns and labels:
# PTH1R [1] = target: T1, PTH1R (Homo sapiens, UniProt Q03431); experiment: Ligand-stimulated cAMP accumulation in HKrk-B7 cells; type: cell-based; design: expressed in transfected cells
# T1 sequence (Q03431 27-593): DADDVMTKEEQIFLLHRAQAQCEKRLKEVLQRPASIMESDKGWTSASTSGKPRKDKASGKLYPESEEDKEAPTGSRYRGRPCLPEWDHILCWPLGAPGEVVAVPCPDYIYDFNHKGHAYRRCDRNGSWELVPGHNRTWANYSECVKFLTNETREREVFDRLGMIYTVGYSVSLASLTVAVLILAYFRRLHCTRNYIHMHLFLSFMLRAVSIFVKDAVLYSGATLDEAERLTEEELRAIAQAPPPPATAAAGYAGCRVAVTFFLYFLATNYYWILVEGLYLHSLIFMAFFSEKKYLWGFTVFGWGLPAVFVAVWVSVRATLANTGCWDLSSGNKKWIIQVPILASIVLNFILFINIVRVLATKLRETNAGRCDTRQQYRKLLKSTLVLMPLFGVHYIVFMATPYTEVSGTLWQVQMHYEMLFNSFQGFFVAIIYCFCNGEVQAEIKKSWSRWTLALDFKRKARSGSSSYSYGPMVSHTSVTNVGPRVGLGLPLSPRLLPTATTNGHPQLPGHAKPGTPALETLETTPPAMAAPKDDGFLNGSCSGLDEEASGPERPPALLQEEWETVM
# Procedure: (§1) DMEM, Trypsin/EDTA, and penicillin G/streptomycin and horse serum were from Gibco/BRL, Life Technologies, Gaithersburg, Md. LLC-PK, expressing the recombinant human PTH1R (HKrk-B7 cells) and SaOS-2 cells expressing the wild-type PTH1R endogenously were cultured in DMEM supplemented with 10% heat-inactivated fetal bovine serum, 100 U/ml penicillin, 100 μg/ml streptomycin, as previously described (Gardella, T. J., et al., J. Biol. Chem. 271:19888-19893 (1996); Fukayama, S., et al., Endocrinology 134:1851-1858 (1994)); both cell lines were maintained in a humidified atmosphere containing 95% air and 5% CO2. After seeding, medium was replaced daily, until cells were used for radioligand binding or cAMP accumulation assays.
# (§2) Na^125I (specific activity: 2,000 Ci/mmol) was purchased from DuPont/NEN, Boston, Mass. Fetal bovine serum, 3-isobutyl-1-methyl-xanthine (IBMX), and BSA were from Sigma, St. Louis, Mo., and trifluoroacetic acid (TFA) was from Pierce, Rockford, Ill. Radiolabeled rPTH(1-34) and PTHrP(1-36) were prepared by the chloramine-T method, followed by HPLC purification using a 30-50% ACN/0.1% TFA gradient over 30 minutes; radioreceptor assays were performed in 24-well plates as previously described (Gardella, T. J., et al., J. Biol. Chem. 271:19888-19893 (1996); Fukayama, S. et al., Endocrinology 134:1851-1858 (1994)). In brief, each well (final volume 500 μl) contained binding buffer (BB; 50 mM Tris-HCl (pH 7.7), 100 mM NaCl, 5 mM KCl, 2 mM CaCl2, 5% heat-inactivated horse serum, and 0.5% heat-inactivated fetal bovine serum), the ^125I-labeled PTH or PTHrP analog (100,000 to 200,000 cpm) was incubated in the absence or presence of increasing concentrations of unlabeled peptides. After 4 h at 16° C., buffer was completely removed, the cells were rinsed with cold BB and lysed with 1 M NaOH. The entire lysate was counted for γ-irradiation. Specific binding was determined after subtracting radioactivity bound in the presence of maximal concentrations of unlabeled competing peptide (10^−6 M). Agonist-dependent stimulation of cAMP accumulation by HKrk-B7 and SaOS-2 cells (48-well plates; stimulation at room temperature for 45 minutes) and the subsequent measurement of cAMP by radioimmunoassay was performed as previously described (Gardella, T. J., et al., J. Biol. Chem. 271:19888-19893 (1996); Bergwitz, C., et al., Endocrinology 139:723-732 (1998)). Data were analyzed and graphically illustrated using the graph-pad prism software package.
# The values for EC50 and Vmax (mean±SE) are derived from at least three independent experiments.
# PTH1R [2] = target: T1, PTH1R; experiment: Radioreceptor binding assay with HKrk-B7 cells; design: expressed in transfected cells
# Procedure: as §1, §2
# The binding properties of these peptides were evaluated in radioreceptor assays with HKrk-B7 cells, which express the PTH IR at high density (approximately […]) (Carter, P. H., et al., Endocrinology 140:4972-4981 (1999)), using either radiolabeled rPTH(1-34) or PTHrP(1-36).
# The calculated IC50 values (mean±SE) are derived from at least three independent experiments.
# endogenous PTH1R = target: T2, endogenous PTH1R (Homo sapiens, UniProt Q03431); experiment: Ligand-stimulated cAMP accumulation in SaOS-2 cells; type: cell-based
# T2 construct: SaOS-2 cells expressing the wild-type PTH1R endogenously; endogenous in cells; host or cells: SaOS-2 human osteosarcoma cells
# T2 sequence (Q03431 27-593): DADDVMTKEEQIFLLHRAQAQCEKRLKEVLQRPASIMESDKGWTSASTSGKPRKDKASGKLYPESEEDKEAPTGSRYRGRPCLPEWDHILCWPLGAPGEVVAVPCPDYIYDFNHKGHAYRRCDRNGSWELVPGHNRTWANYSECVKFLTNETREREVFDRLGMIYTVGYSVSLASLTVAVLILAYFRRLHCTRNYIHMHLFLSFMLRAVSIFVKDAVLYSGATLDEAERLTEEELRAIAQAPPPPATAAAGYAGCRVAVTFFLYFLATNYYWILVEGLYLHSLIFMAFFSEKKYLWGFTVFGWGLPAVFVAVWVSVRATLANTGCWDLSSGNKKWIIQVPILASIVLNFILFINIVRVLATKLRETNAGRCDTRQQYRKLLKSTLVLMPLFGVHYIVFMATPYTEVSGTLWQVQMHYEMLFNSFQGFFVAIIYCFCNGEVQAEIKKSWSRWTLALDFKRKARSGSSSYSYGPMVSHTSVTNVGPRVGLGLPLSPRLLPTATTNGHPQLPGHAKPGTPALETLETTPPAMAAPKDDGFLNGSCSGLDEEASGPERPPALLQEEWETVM
# Procedure: as §1
# as §2, with “After 4 h at 16° C., buffer was completely removed, the cells were rinsed with cold BB and lysed with 1 M NaOH.” left out, “Agonist-dependent stimulation of cAMP accumulation by HKrk-B7 and SaOS-2 cells (48-well plates; stimulation at room temperature for 45 minutes) and the subsequent measurement of cAMP by radioimmunoassay was performed as previously described (Gardella, T. J., et al., J. Biol. Chem. 271:19888-19893 (1996); Bergwitz, C., et al., Endocrinology 139:723-732 (1998)).” left out, “package. […]” for “package.”
# [3] = maximal cAMP accumulation, mean±SE
molecule,measurement,setting,value
CC[C@H](C)[C@H](NC(=O)[C@H](CO)NC(=O)[C@H](CCCCN)NC(=O)CNC(=O)[C@H](CCCCN)NC(=O)[C@H](CC(=O)O)NC(=O)[C@H](Cc1c[nH]cn1)NC(=O)[C@H](CC(C)C)NC(=O)[C@H](CC(C)C)NC(=O)[C@H](CCC(N)=O)NC(=O)[C@H](Cc1c[nH]cn1)NC(=O)[C@H](CCC(=O)O)NC(=O)[C@H](CO)NC(=O)[C@@H](NC(=O)[C@H](C)N)C(C)C)C(=O)N[C@@H](CCC(N)=O)C(=O)N[C@@H](CC(=O)O)C(=O)N[C@@H](CC(C)C)C(=O)N[C@@H](CCCNC(=N)N)C(=O)N[C@@H](CCCNC(=N)N)C(=O)N[C@@H](CCCNC(=N)N)C(=O)N[C@@H](Cc1c[nH]cn1)C(=O)N[C@@H](Cc1c[nH]c2ccccc12)C(=O)N[C@@H](CC(C)C)C(=O)N[C@@H](CC(N)=O)C(=O)N[C@@H](CO)C(=O)N[C@@H](Cc1ccc(O)cc1)C(=O)N[C@@H](CCSC)C(=O)N[C@@H](Cc1c[nH]cn1)C(=O)N[C@@H](CCCCN)C(=O)N[C@@H](CC(C)C)C(=O)N[C@@H](CC(C)C)C(=O)N[C@H](C(=O)N[C@@H](CC(C)C)C(=O)N[C@@H](CC(=O)O)C(=O)N[C@@H](C)C(=O)N1CCC[C@H]1C(N)=O)C(C)C [PTHrP(1-20)/TIP(23-39)] (H-AVSEHQLLHDKGKSIQDLRRRHWLNSYMHKLLVLDAP-NH2),Vmax (efficacy) of cAMP accumulation,PTH1R [1]; HKrk-B7 cells,39±8 pmol/well
same,stimulation of cAMP accumulation at the PTH1R (in words),PTH1R [1]; HKrk-B7 cells,full and potent agonist
same,HKrk-B7 Maxobs,PTH1R [1]; [3],39 ± 8 pmol/48-well
same,binding affinity higher than that of PTHrP(1-36),PTH1R [2],2- to 4 fold
same,binding affinity weaker than that of PTH(1-34),PTH1R [2],3- to 4 fold
same,improvement in apparent binding affinity (IC50) relative to TIP(1-39),PTH1R [2]; either radioligand,8- to 19 fold
same,Vmax (efficacy) of cAMP accumulation,endogenous PTH1R; SaOS-2 cells,31±3 pmol/well
same,SaOS-2 Maxobs,endogenous PTH1R; [3],31 ± 3 pmol/48-well
CSCC[C@H](NC(=O)[C@H](Cc1ccc(O)cc1)NC(=O)[C@H](CO)NC(=O)[C@H](CC(N)=O)NC(=O)[C@H](CC(C)C)NC(=O)[C@H](Cc1c[nH]c2ccccc12)NC(=O)[C@H](Cc1c[nH]cn1)NC(=O)[C@H](CCCNC(=N)N)NC(=O)[C@H](CCCNC(=N)N)NC(=O)[C@H](CCC(=O)O)NC(=O)[C@H](CC(C)C)NC(=O)[C@H](C)NC(=O)[C@H](C)NC(=O)[C@H](CC(C)C)NC(=O)[C@H](CC(C)C)NC(=O)[C@H](CCCNC(=N)N)NC(=O)[C@H](C)NC(=O)[C@H](CCCNC(=N)N)NC(=O)[C@H](CCC(=O)O)NC(=O)[C@H](CCCNC(=N)N)NC(=O)[C@H](Cc1ccccc1)NC(=O)[C@H](C)NC(=O)[C@H](C)NC(=O)[C@H](CC(=O)O)NC(=O)[C@H](CC(=O)O)NC(=O)[C@H](C)NC(=O)[C@H](CC(C)C)NC(=O)[C@H](C)N)C(=O)N[C@@H](Cc1c[nH]cn1)C(=O)N[C@@H](CCCCN)C(=O)N[C@@H](CC(C)C)C(=O)N[C@@H](CC(C)C)C(=O)N[C@H](C(=O)N[C@@H](CC(C)C)C(=O)N[C@@H](CC(=O)O)C(=O)N[C@@H](C)C(=O)N1CCC[C@H]1C(N)=O)C(C)C [TIP(3-39)] (H-ALADDAAFRERARLLAALERRHWLNSYMHKLLVLDAP-NH2),stimulation of cAMP accumulation at the PTH1R (in words),PTH1R [1]; HKrk-B7 cells,lack of second messenger formation; also recorded: failed to stimulate cAMP accumulation
PTHrP(1-6)/TIP(9-39): chimera of human PTHrP residues 1-6 and bovine TIP residues 9-39,stimulation of cAMP accumulation at the PTH1R (in words),PTH1R [1]; HKrk-B7 cells,"None of these peptides, however, stimulated cAMP formation; also recorded: lack of PTH1R activation"
PTHrP(1-20)amide (AVSEHQLLHDKGKSIQDLRR-NH2) [reference compound],inhibition of radioligand binding to the PTH1R (in words),PTH1R [2]; either radioligand,did not inhibit the binding of either radioligand
